Assay results from patent US20130207041A1, “FLUORESCENT COMPOUND, MAKING METHOD, AND FLUORESCENT RESIN COMPOSITION” (Shin-Etsu Chemical Co., Ltd., priority 2012, published 2013).
≈ marks a conversion by molar mass, not a printed value.

How the values were obtained:
[1] = in ethanol
[2] = Solubility in transparent silicone resin SIM-360 matrix; conditions: room temperature, stirring; judged dissolved when solution became transparent
Method: With stirring at room temperature, transparent silicone resin SIM-360 matrix (Shin-Etsu Chemical Co., Ltd.) was added in incremental amounts.

| Structure (SMILES) | maximum absorption peak wavelength [1] [nm] | molar absorption coefficient [1] | solubility in silicone resin SIM-360 matrix [2] |
| --- | --- | --- | --- |
| C[Si](C)(C)O[Si](C)(CCCC1(CCC[Si](C)(O[Si](C)(C)C)O[Si](C)(C)C)c2cc(-c3ccc(-c4ccccc4)cc3)ccc2-c2ccc(-c3ccc(-c4ccccc4)cc3)cc21)O[Si](C)(C)C [Compound #2, 2,7-bis(biphenyl)-9,9′-di-[3-(1-trimethylsiloxy-1,3,3,3-tetramethyldisiloxan-1-yl)propyl]-fluorene] | 338 | 7.07×10^4 | 1.3 mM (≈ 1290 µg/mL) |
| C[Si](C)(C)O[Si](C)(C)O[Si](C)(C)O[Si](C)(C)O[Si](C)(C)CCCC1(CCC[Si](C)(C)O[Si](C)(C)O[Si](C)(C)O[Si](C)(C)O[Si](C)(C)C)c2cc(-c3ccc(-c4ccccc4)cc3)ccc2-c2ccc(-c3ccc(-c4ccccc4)cc3)cc21 [Compound #4, 2,7-bis(biphenyl)-9,9′-di-[3-(undecamethylpentasiloxan-1-yl)propyl]fluorene] | 338 | 6.81×10^4 | 6.0 mM (≈ 7750 µg/mL) |
| CCCCCCC1(CCCCCC)c2cc(-c3ccc(-c4ccccc4)cc3)ccc2-c2ccc(-c3ccc(-c4ccccc4)cc3)cc21 [Compound #5, 2,7-Bis(Biphenyl)-9,9′-Dihexylfluorene, reference compound] | – | – | could not be dissolved |
